Molecules are shown by their SMILES.

The first data set can be described thus: logP by HPLC (EEC Directive 79/831 Annex V. A8, gradient method). It is filed as physicochemical. The settings on record: HPLC, gradient method, acetonitrile/0.1% aqueous phosphoric acid; Table 1.
For the compound `COC(=O)C(=NOCC#N)c1ccccc1OC1=NS(=O)(=O)CS1` [Example 7], the logP (usually a log measure of how a compound divides between an organic and an aqueous phase) is on record as 1.7. In the case of `O=[N+]([O-])c1ccc(Oc2ccc(OC3=NS(=O)(=O)CS3)cc2)c(Cl)c1` [Example 126], the log partition coefficient (logP) was determined as 3.33. On the same count and under the same terms, the result for `O=S1(=O)CSC(Oc2ccc(OC(F)(F)F)cc2)=N1` [Example 124] reads 2.79; that for `COc1cc(C=Cc2ccccc2)cc(OC2=NS(=O)(=O)CS2)c1` (mixture of isomers) [Example 87], 3.62; that for `Cc1cccc(C)c1OC1=NS(=O)(=O)CS1` [Example 123], 2.57. `N#CCc1ccccc1OC1=NS(=O)(=O)CS1` [Example 8] returned a lipophilicity (logP) of 1.68.

In the case of `COc1cccc(OC2=NS(=O)(=O)CS2)c1OC` [Example 118], the logP was determined as 2.12.

`O=S1(=O)CSC(Oc2ccc(S(=O)(=O)c3ccc(Cl)cc3)cc2)=N1` [Example 83] came in with a lipophilicity (logP) of 2.72.

Regarding `CC(C)(C)c1cc(OC2=NS(=O)(=O)CS2)ccc1O` [Example 34], the logP turned out to be 2.66. `O=S1(=O)CSC(Oc2ccc(OC3=NS(=O)(=O)CS3)cc2)=N1` [Example 88] registered a logP of 1.88.

The compound `N#Cc1cccc(OC2=NS(=O)(=O)CS2)c1` [Example 109] displayed a logP of 1.69. On to `CC(C)Oc1ccccc1OC1=NS(=O)(=O)CS1` [Example 129], for which the logP amounted to 2.7. The same measure, in the same setting: the result for `O=C(c1ccc(OC2=NS(=O)(=O)CS2)cc1)c1ccc(-c2ccccc2)cc1` [Example 70] reads 3.72; that for `O=S1(=O)CSC(Oc2ccc(SC(F)(F)F)cc2)=N1` [Example 135], 3.07.

The compound `CC(=O)c1cc(OC2=NS(=O)(=O)CS2)cc([N+](=O)[O-])c1` [Example 74] returned a logP of 1.95. Still for that read-out and setting: the result for `O=C(c1ccc(Cl)cc1)c1ccc(OC2=NS(=O)(=O)CS2)cc1` [Example 86] reads 3.17; that for `O=C(C=Cc1ccccc1)c1ccc(OC2=NS(=O)(=O)CS2)cc1` [Example 67], 3.06.

The compound `CON=C(C1=NOCCO1)c1ccccc1OC1=NS(=O)(=O)CS1` [Example 4] showed a logP of 1.77. On the same count and under the same terms, the result for `O=S1(=O)CSC(Oc2ccc(F)cc2)=N1` [Example 112] reads 2.04; that for `N#CSCC(=O)c1ccc(OC2=NS(=O)(=O)CS2)cc1` [Example 55], 2.01; that for `COC(=O)c1ccc(N=Cc2ccc(OC3=NS(=O)(=O)CS3)cc2)cc1` [Example 68], 1.59. `CCCCc1oc2ccccc2c1C(=O)c1ccc(OC2=NS(=O)(=O)CS2)cc1` [Example 71] displayed a log partition coefficient (logP) of 4.28.

Turning to `O=S1(=O)CSC(Oc2ccc(Br)cc2)=N1` [Example 122], the logP was 2.52. Still for that read-out and setting: with `COc1ccccc1OC1=NS(=O)(=O)CS1` [Example 136] the figure was 2.02; with `Cc1cc(OC2=NS(=O)(=O)CS2)cc(C)c1SC#N` [Example 60], 2.55; with `O=S1(=O)CSC(Oc2cccc(OC(F)(F)F)c2)=N1` [Example 134], 2.35. The same measure, in the same setting: with `Cc1ccc(C)c(OC2=NS(=O)(=O)CS2)c1` [Example 125] the figure was 2.63; with `CCN(CC)C(=O)c1ccc(OC2=NS(=O)(=O)CS2)c(NC)c1` [Example 64], 2. The same measure, in the same setting: with `C=CCON=C(C)c1ccc(OC2=NS(=O)(=O)CS2)cc1` [Example 23] the figure was 3.15; with `Cc1cnc(Sc2ccc(OC3=NS(=O)(=O)CS3)cc2)nc1C` [Example 63], 2.55; with `CC(C)n1nc(-c2ccc(OC3=NS(=O)(=O)CS3)cc2)ccc1=O` [Example 19], 2.15. As to `CN(C)N=Cc1ccc(OC2=NS(=O)(=O)CS2)cc1` [Example 61], the lipophilicity (logP) stood at 2.16. On the same count and under the same terms, with `CSc1ccc(OC2=NS(=O)(=O)CS2)cc1C` [Example 54] the figure was 2.75; with `CC(=NOCc1ccccc1)c1ccc(OC2=NS(=O)(=O)CS2)c(C)c1` [Example 18], 3.92. Still for that read-out and setting: with `O=S1(=O)CSC(Oc2ccc(N=Nc3ccccc3)cc2OC2=NS(=O)(=O)CS2)=N1` [Example 51] the figure was 3.06; with `CCON=C(C)c1ccc(OC2=NS(=O)(=O)CS2)c(C)c1` [Example 17], 3.32. On the same count and under the same terms, the result for `Cc1cc(S(=O)(=O)c2ccccc2)cc(Cl)c1OC1=NS(=O)(=O)CS1` [Example 120] reads 2.83. In the case of `CCOC(=O)NN=C(C)c1ccc(OC2=NS(=O)(=O)CS2)cc1` [Example 72], the logP is 1.86. `COC(=O)Nc1ccc(C=Cc2cccc(OC3=NS(=O)(=O)CS3)c2)c(NC(=O)OC)c1` [Example 49] displayed a logP of 2.43. On the same count and under the same terms, with `O=S1(=O)CSC(Oc2cccc(C(F)(F)F)c2)=N1` [Example 113] the figure was 2.62. On to `COc1cc(C=CN2C(=O)c3ccccc3C2=O)ccc1OC1=NS(=O)(=O)CS1` (mixture of isomers) [Example 79], for which the logP amounted to 2.63. Still for that read-out and setting: with `COc1cc(OC2=NS(=O)(=O)CS2)ccc1C(C)=O` [Example 58] the figure was 1.88; with `COc1cc(Cl)cc(OC2=NS(=O)(=O)CS2)c1` [Example 116], 2.61. The compound `CN=Cc1ccc(OC2=NS(=O)(=O)CS2)cc1` [Example 53] came in with a logP of 2.33. Still for that read-out and setting: the result for `O=[N+]([O-])c1ccc(Sc2ccc(OC3=NS(=O)(=O)CS3)cc2)cc1` [Example 121] reads 3.28; that for `O=C(C=Cc1ccccc1)c1ccccc1OC1=NS(=O)(=O)CS1` [Example 130], 2.91. `Cc1cc(OC2=NS(=O)(=O)CS2)ccc1Sc1ccc([N+](=O)[O-])cc1C` [Example 84] registered a lipophilicity (logP) of 3.94.

`CON=C(C)c1cc(OC2=NS(=O)(=O)CS2)ccc1OC1=NS(=O)(=O)CS1` [Example 30] displayed a log partition coefficient (logP) of 2.43. As to `O=S1(=O)CSC(Oc2ccc(C(F)(F)F)cc2)=N1` [Example 132], the logP turned out to be 2.64. The same measure, in the same setting: the result for `Cc1cc(OC2=NS(=O)(=O)CS2)ccc1N` [Example 137] reads 0.83; that for `CCC(=O)c1ccccc1OC1=NS(=O)(=O)CS1` [Example 57], 2.04; that for `CC(O)c1cccc(OC2=NS(=O)(=O)CS2)c1` (racemic) [Example 80], 1.48.

Take `CCOC(=O)NN=Cc1cccc(OC2=NS(=O)(=O)CS2)c1` [Example 36]: the logP is 1.79. The same measure, in the same setting: the result for `Cc1cc(OC2=NS(=O)(=O)CS2)ccc1SC(F)(F)F` [Example 52] reads 3.39; that for `O=S1(=O)CSC(Oc2cccc(CO)c2)=N1` [Example 46], 1.23. As for `O=[N+]([O-])c1ccc(C=Cc2cccc(OC3=NS(=O)(=O)CS3)c2[N+](=O)[O-])cc1` (mixture of isomers) [Example 85], the log partition coefficient (logP) was found to be 3.28.

Regarding `O=C(Cc1ccccc1)c1ccc(OC2=NS(=O)(=O)CS2)cc1` [Example 65], the log partition coefficient (logP) came out at 2.76.

In turn, `CC(=NOCc1ccccc1)c1cccc(OC2=NS(=O)(=O)CS2)c1` [Example 25] showed a log partition coefficient (logP) of 3.67. The same measure, in the same setting: the result for `COc1ccc(C(C)=O)c(OC2=NS(=O)(=O)CS2)c1` [Example 75] reads 1.83; that for `O=S1(=O)CSC(Oc2cccc(CCO)c2)=N1` [Example 90], 1.39.

For the compound `N#CC(C#N)=Cc1cccc(OC2=NS(=O)(=O)CS2)c1` [Example 38], the log partition coefficient (logP) was determined as 1.59. Same read-out and setting: with `CON=C(C(=O)NOCc1ccccc1)c1ccccc1OC1=NS(=O)(=O)CS1` [Example 10] the figure was 2.18. Same read-out and setting: with `O=[N+]([O-])c1ccc(C=Cc2cccc(OC3=NS(=O)(=O)CS3)c2)c([N+](=O)[O-])c1` (mixture of isomers) [Example 81] the figure was 3.22; with `COC(=O)c1ccc(N=Cc2cccc(OC3=NS(=O)(=O)CS3)c2)cc1` [Example 76], 1.61; with `O=S1(=O)CSC(Oc2cccc(C3=NOCCO3)c2)=N1` [Example 56], 1.86. Consider `COc1ccc(C(=O)c2ccc(OC3=NS(=O)(=O)CS3)cc2)cc1` [Example 66], for which the logP is 2.67.

The data set is the same for the next values; noted with them: Table 2.
For `COC(=O)c1c(-c2ccc(-c3ccccc3)cc2)oc2ccc(OC3=NS(=O)(=O)CS3)cc12` [Example 146], the chromatographic logP – broadly, lipophilicity estimated from chromatographic retention – amounted to 3.43. Still for that read-out and setting: with `Cc1c(C(=O)O)c2cc(OC3=NS(=O)(=O)CS3)ccc2n1C` [Example 144] the figure was 2.65. The compound `O=c1c2ccccc2oc2cc(OC3=NS(=O)(=O)CS3)ccc12` [Example 152] came in with a chromatographic logP of 2.52. In turn, `O=S1(=O)CSC(Oc2ccc3c(c2)Nc2ccccc2S3(=O)=O)=N1` [Example 154] gave a chromatographic logP of 1.93. The same measure, in the same setting: the result for `O=S1(=O)CSC(Oc2ccc3c(c2)OCO3)=N1` [Example 142] reads 1.9; that for `O=c1oc2cc(OC3=NS(=O)(=O)CS3)ccc2cc1-c1ccccc1` [Example 147], 2.77; that for `Cc1nc2cc(OC3=NS(=O)(=O)CS3)ccc2s1` [Example 148], 1.92.

The compound `CN1C(=O)Nc2cc(OC3=NS(=O)(=O)CS3)ccc2SC1=O` [Example 149] returned a chromatographic logP of 1.55. `O=S1(=O)CSC(Oc2ccc3[nH]ccc3c2)=N1` [Example 155] came in with a chromatographic logP of 1.86. `COC(=O)/C(C#N)=C1/Oc2ccc(OC3=NS(=O)(=O)CS3)cc2S1` [Example 151] displayed a chromatographic logP of 2.31. On the same count and under the same terms, the result for `O=S1(=O)CSC(Oc2cccc3sc4ccccc4c23)=N1` [Example 153] reads 3.31.

The data set is the same for the next values; noted with them: Table 4, starting materials of formula (IV).
Compound `CSC1=NS(=O)(=O)C(C)S1` (stereo not shown) [IV-3] returned a chromatographic logP of 1.38.

The compound `CSC1=NS(=O)(=O)CC(c2ccccc2)S1` (stereo not shown) [IV-6] had a chromatographic logP of 2.54. The same measure, in the same setting: with `CSC1=NS(=O)(=O)C(C(C)C)S1` (stereo not shown) [IV-4] the figure was 2.8.

Staying with this data set, now noted: gradient of acetonitrile/0.1% aqueous phosphoric acid; HPLC, gradient method, acetonitrile/0.1% aqueous phosphoric acid; Table 1.
For `CO/N=C(/C)c1cccc(OC2=NS(=O)(=O)CS2)c1` [Example 26], the chromatographic logP is 2.65. The compound `CC(C)(CCl)C(=O)Nc1ccc(OC2=NS(=O)(=O)CS2)c(Cl)c1Cl` [Example 13] registered a chromatographic logP of 2.98.

The values are drawn from US6531496B1 (Bayer Aktiengesellschaft, priority 1999, dated 2003).
